Values joined by “and” are separate entries in the source; they are usually repeats but may differ in a detail not shown here. Equal values may be shown once.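 Growth conditions: 96-well plates. Treatment: test compound, 48 hours, 5 concentrations. Analysis: linear interpolation between bracketing concentrations; unreached endpoints set to highest concentration. The concentration for 50% growth inhibition is given as GI50. At the TGI there is no net growth.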
Experiments:
Assay in all cases: growth of human tumour cells (NCI), 48 h
786-0 renal = system: 786-0 renal
A498 renal = system: A498 renal
A549 NSCLC = system: A549 NSCLC
ACHN renal = system: ACHN renal
BT-549 breast = system: BT-549 breast
CAKI-1 renal = system: CAKI-1 renal
CCRF-CEM leukemia = system: CCRF-CEM leukemia
COLO 205 colon = system: COLO 205 colon
DU-145 prostate = system: DU-145 prostate
EKVX NSCLC = system: EKVX NSCLC
HCC-2998 colon = system: HCC-2998 colon
HCT-116 colon = system: HCT-116 colon
HCT-15 colon = system: HCT-15 colon
HL-60(TB) leukemia = system: HL-60(TB) leukemia
HOP-62 NSCLC = system: HOP-62 NSCLC
HOP-92 NSCLC = system: HOP-92 NSCLC
HS 578T breast = system: HS 578T breast
HT29 colon = system: HT29 colon
IGROV1 ovarian = system: IGROV1 ovarian
K-562 leukemia = system: K-562 leukemia
KM12 colon = system: KM12 colon
LOX IMVI melanoma = system: LOX IMVI melanoma
M14 melanoma = system: M14 melanoma
MALME-3M melanoma = system: MALME-3M melanoma
MCF7 breast = system: MCF7 breast
MDA-MB-231 breast = system: MDA-MB-231 breast
MDA-MB-435 = system: MDA-MB-435
MDA-N = system: MDA-N
MOLT-4 leukemia = system: MOLT-4 leukemia
NCI-H226 lung = system: NCI-H226 lung
NCI-H23 lung = system: NCI-H23 lung
NCI-H460 lung = system: NCI-H460 lung
NCI-H522 lung = system: NCI-H522 lung
NCI/ADR-RES ovarian = system: NCI/ADR-RES ovarian
OVCAR-3 ovarian = system: OVCAR-3 ovarian
OVCAR-4 ovarian = system: OVCAR-4 ovarian
OVCAR-5 ovarian = system: OVCAR-5 ovarian
OVCAR-8 ovarian = system: OVCAR-8 ovarian
PC-3 prostate = system: PC-3 prostate
RPMI-8226 leukemia = system: RPMI-8226 leukemia
RXF 393 renal = system: RXF 393 renal
SF-268 CNS = system: SF-268 CNS
SF-295 CNS = system: SF-295 CNS
SF-539 CNS = system: SF-539 CNS
SK-MEL-2 melanoma = system: SK-MEL-2 melanoma
SK-MEL-28 melanoma = system: SK-MEL-28 melanoma
SK-MEL-5 melanoma = system: SK-MEL-5 melanoma
SK-OV-3 ovarian = system: SK-OV-3 ovarian
SN12C renal = system: SN12C renal
SNB-19 CNS = system: SNB-19 CNS
SNB-75 CNS = system: SNB-75 CNS
SR leukemia = system: SR leukemia
SW-620 colon = system: SW-620 colon
T-47D breast = system: T-47D breast
TK-10 renal = system: TK-10 renal
U251 CNS = system: U251 CNS
UACC-257 melanoma = system: UACC-257 melanoma
UACC-62 melanoma = system: UACC-62 melanoma
UO-31 renal = system: UO-31 renal

O=C1c2ccccc2-c2n[nH]c3cccc1c23
GI50 (786-0 renal): 11.9 µM | TGI (786-0 renal): > 100 µM | GI50 (A498 renal): 4.95 µM | TGI (A498 renal): 35.4 µM and 52.4 µM | TGI (A549 NSCLC): > 100 µM | TGI (ACHN renal): > 100 µM | GI50 (BT-549 breast): 19.3 µM | TGI (BT-549 breast): > 100 µM | GI50 (CAKI-1 renal): 2980 nM | TGI (CAKI-1 renal): 18.2 µM and 22.6 µM | TGI (CCRF-CEM leukemia): > 100000 nM | GI50 (COLO 205 colon): 23.9 µM | TGI (COLO 205 colon): > 100 µM | GI50 (DU-145 prostate): 13 µM | TGI (DU-145 prostate): > 100 µM | GI50 (EKVX NSCLC): 7.03 µM | TGI (EKVX NSCLC): > 100 µM and 85.1 µM | GI50 (HCC-2998 colon): 19.3 µM | TGI (HCC-2998 colon): 54.6 µM and > 100 µM | GI50 (HCT-116 colon): 6.15 µM | TGI (HCT-116 colon): > 100 µM | GI50 (HCT-15 colon): 6.66 µM | TGI (HCT-15 colon): > 100 µM | GI50 (HL-60(TB) leukemia): 9.8 µM | TGI (HL-60(TB) leukemia): > 100000 nM | GI50 (HOP-62 NSCLC): 32.1 µM | TGI (HOP-62 NSCLC): > 100 µM | GI50 (HOP-92 NSCLC): 23.7 µM | TGI (HOP-92 NSCLC): > 100 µM | GI50 (HS 578T breast): 21 µM | TGI (HS 578T breast): > 100 µM | GI50 (HT29 colon): 12.9 µM | TGI (HT29 colon): > 100 µM | GI50 (IGROV1 ovarian): 9.32 µM | TGI (IGROV1 ovarian): > 100 µM and 99.1 µM | GI50 (K-562 leukemia): 15.6 µM | TGI (K-562 leukemia): > 100000 nM | GI50 (KM12 colon): 3.1 µM | TGI (KM12 colon): 72 µM and > 100 µM | GI50 (LOX IMVI melanoma): 6.04 µM | TGI (LOX IMVI melanoma): > 100 µM and 34.2 µM | GI50 (M14 melanoma): 5.03 µM | TGI (M14 melanoma): > 100000 nM | GI50 (MALME-3M melanoma): 24.1 µM | TGI (MALME-3M melanoma): 58.9 µM and > 86.8 µM | GI50 (MCF7 breast): 21.1 µM | TGI (MCF7 breast): > 100 µM | GI50 (MDA-MB-231 breast): 35.8 µM | TGI (MDA-MB-231 breast): > 100 µM | GI50 (MDA-MB-435): 15.8 µM | TGI (MDA-MB-435): > 100 µM | TGI (MDA-N): > 100 µM | GI50 (MOLT-4 leukemia): 7.85 µM | TGI (MOLT-4 leukemia): > 100 µM | GI50 (NCI-H226 lung): 10.3 µM | TGI (NCI-H226 lung): > 100 µM and 78.4 µM | TGI (NCI-H23 lung): 58.1 µM and > 100 µM | GI50 (NCI-H460 lung): 8.6 µM | TGI (NCI-H460 lung): > 100 µM | GI50 (NCI-H522 lung): 15.7 µM | TGI (NCI-H522 lung): 50.4 µM and > 92.8 µM | GI50 (NCI/ADR-RES ovarian): 30.5 µM | TGI (NCI/ADR-RES ovarian): 59.2 µM and > 100 µM | GI50 (OVCAR-3 ovarian): 23.8 µM | TGI (OVCAR-3 ovarian): 92.1 µM and > 100 µM | GI50 (OVCAR-4 ovarian): 20.2 µM | TGI (OVCAR-4 ovarian): > 100 µM | TGI (OVCAR-5 ovarian): 85.4 µM and > 100 µM | TGI (OVCAR-8 ovarian): > 100 µM | GI50 (PC-3 prostate): 17.8 µM | TGI (PC-3 prostate): > 100 µM | GI50 (RPMI-8226 leukemia): 14.1 µM | TGI (RPMI-8226 leukemia): > 100 µM | GI50 (RXF 393 renal): 5.89 µM | TGI (RXF 393 renal): > 100 µM and 56.9 µM | GI50 (SF-268 CNS): 12 µM | TGI (SF-268 CNS): > 100 µM | TGI (SF-295 CNS): 86.3 µM and > 100 µM | GI50 (SF-539 CNS): 25.1 µM | TGI (SF-539 CNS): > 100 µM | GI50 (SK-MEL-2 melanoma): 22.5 µM | TGI (SK-MEL-2 melanoma): > 100 µM | GI50 (SK-MEL-28 melanoma): 49.3 µM | TGI (SK-MEL-28 melanoma): > 100 µM | GI50 (SK-MEL-5 melanoma): 25.6 µM | TGI (SK-MEL-5 melanoma): 37.5 µM and > 94.6 µM | GI50 (SK-OV-3 ovarian): 7.39 µM | TGI (SK-OV-3 ovarian): > 100 µM | GI50 (SN12C renal): 20.8 µM | TGI (SN12C renal): > 100 µM | TGI (SNB-19 CNS): > 100 µM | TGI (SNB-75 CNS): 97.6 µM and > 100 µM | GI50 (SR leukemia): 9.01 µM | TGI (SR leukemia): > 100 µM | TGI (SW-620 colon): > 100 µM | GI50 (T-47D breast): 45.1 µM | TGI (T-47D breast): > 100000 nM | GI50 (TK-10 renal): 7.44 µM | TGI (TK-10 renal): 52 µM and 76.2 µM | GI50 (U251 CNS): 16.6 µM | TGI (U251 CNS): > 100 µM | TGI (UACC-257 melanoma): > 100000 nM | GI50 (UACC-62 melanoma): 19.7 µM | TGI (UACC-62 melanoma): 86.6 µM and > 100 µM | GI50 (UO-31 renal): 4.02 µM | TGI (UO-31 renal): > 100 µM and 55.9 µM

S=C(N/N=C(/c1ccccc1)c1ccccn1)Nc1ccc(Cl)cc1
TGI (786-0 renal): 12.3 µM | TGI (A498 renal): 9.4 µM | TGI (A549 NSCLC): 14 µM | TGI (ACHN renal): 9.01 µM | TGI (BT-549 breast): 9.94 µM | TGI (CAKI-1 renal): 9.37 µM | TGI (CCRF-CEM leukemia): 2260 nM | TGI (COLO 205 colon): 18.2 µM | TGI (DU-145 prostate): 11.6 µM | TGI (EKVX NSCLC): 15.5 µM | TGI (HCC-2998 colon): 10.9 µM | TGI (HCT-116 colon): 4.47 µM | TGI (HCT-15 colon): 11.2 µM | TGI (HL-60(TB) leukemia): 543 nM | TGI (HOP-62 NSCLC): 16.6 µM | TGI (HOP-92 NSCLC): 11.9 µM | TGI (HS 578T breast): > 78.2 µM | TGI (HT29 colon): > 44.3 µM | TGI (IGROV1 ovarian): 12.9 µM | TGI (K-562 leukemia): 581 nM | TGI (KM12 colon): 13.7 µM | TGI (LOX IMVI melanoma): 7.49 µM | TGI (M14 melanoma): 2810 nM | TGI (MALME-3M melanoma): 10.6 µM | TGI (MCF7 breast): 7.16 µM | TGI (MDA-MB-231 breast): 8.27 µM | TGI (MDA-MB-435): 10.2 µM | TGI (MDA-N): 9.57 µM | TGI (MOLT-4 leukemia): > 13.8 µM | TGI (NCI-H226 lung): 7.54 µM | TGI (NCI-H23 lung): 22.6 µM | TGI (NCI-H460 lung): 5.53 µM | TGI (NCI-H522 lung): 11.5 µM | TGI (NCI/ADR-RES ovarian): 14.3 µM | TGI (OVCAR-3 ovarian): 11.6 µM | TGI (OVCAR-4 ovarian): 14.2 µM | TGI (OVCAR-5 ovarian): 6.2 µM | TGI (OVCAR-8 ovarian): 3.19 µM | TGI (PC-3 prostate): 10.3 µM | TGI (RPMI-8226 leukemia): > 25.9 µM | TGI (RXF 393 renal): 7.87 µM | TGI (SF-268 CNS): 15.5 µM | TGI (SF-295 CNS): 11.3 µM | TGI (SF-539 CNS): 8.55 µM | TGI (SK-MEL-2 melanoma): 4.91 µM | TGI (SK-MEL-28 melanoma): 11.8 µM | TGI (SK-MEL-5 melanoma): 8.1 µM | TGI (SK-OV-3 ovarian): 6.81 µM | TGI (SN12C renal): 13.4 µM | TGI (SNB-19 CNS): 20.7 µM | TGI (SNB-75 CNS): 8.84 µM | TGI (SR leukemia): 6.75 µM | TGI (SW-620 colon): 11.1 µM | TGI (T-47D breast): 2890 nM | TGI (TK-10 renal): 8.3 µM | TGI (U251 CNS): 12.4 µM | TGI (UACC-257 melanoma): 2430 nM | TGI (UACC-62 melanoma): 7.65 µM | TGI (UO-31 renal): 9.37 µM

Source: PubChem BioAssay (NCI)
